The text below walks through data of ChEMBL document CHEMBL5584267, “Discovery of the first selective, small-molecule GFRα2/3 inhibitors through DNA-encoded library technology” (Bioorg Med Chem Lett, 2024).

A word on the Emax: it is the greatest response seen or fitted, relative to the assay's reference. Broadly, the IC50 is the midpoint of a concentration-inhibition curve. Higher therefore signals a need for much substance.

Test [1] has as its target T1, GDNF family receptor alpha-3 (Homo sapiens) (UniProt O60609).
T1 sequence (whole entry): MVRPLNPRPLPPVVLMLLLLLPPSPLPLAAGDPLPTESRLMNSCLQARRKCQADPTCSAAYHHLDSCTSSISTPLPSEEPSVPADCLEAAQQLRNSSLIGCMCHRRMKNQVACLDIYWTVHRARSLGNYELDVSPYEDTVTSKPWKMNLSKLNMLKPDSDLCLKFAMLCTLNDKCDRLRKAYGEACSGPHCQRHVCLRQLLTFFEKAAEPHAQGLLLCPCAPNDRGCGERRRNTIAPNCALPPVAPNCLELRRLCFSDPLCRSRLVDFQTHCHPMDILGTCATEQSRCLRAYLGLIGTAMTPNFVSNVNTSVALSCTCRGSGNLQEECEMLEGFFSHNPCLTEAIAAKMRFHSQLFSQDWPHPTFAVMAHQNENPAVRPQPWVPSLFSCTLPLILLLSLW
As to the kind of experiment: Inhibition of GFRalpha3 (unknown origin) assessed as maximal efficacy relative to control.

Test [2] deals with T2, Proto-oncogene tyrosine-protein kinase receptor Ret (Homo sapiens, UniProt P07949). As to the kind of experiment: Inhibition of RET (unknown origin).
T2 sequence (P07949 whole entry): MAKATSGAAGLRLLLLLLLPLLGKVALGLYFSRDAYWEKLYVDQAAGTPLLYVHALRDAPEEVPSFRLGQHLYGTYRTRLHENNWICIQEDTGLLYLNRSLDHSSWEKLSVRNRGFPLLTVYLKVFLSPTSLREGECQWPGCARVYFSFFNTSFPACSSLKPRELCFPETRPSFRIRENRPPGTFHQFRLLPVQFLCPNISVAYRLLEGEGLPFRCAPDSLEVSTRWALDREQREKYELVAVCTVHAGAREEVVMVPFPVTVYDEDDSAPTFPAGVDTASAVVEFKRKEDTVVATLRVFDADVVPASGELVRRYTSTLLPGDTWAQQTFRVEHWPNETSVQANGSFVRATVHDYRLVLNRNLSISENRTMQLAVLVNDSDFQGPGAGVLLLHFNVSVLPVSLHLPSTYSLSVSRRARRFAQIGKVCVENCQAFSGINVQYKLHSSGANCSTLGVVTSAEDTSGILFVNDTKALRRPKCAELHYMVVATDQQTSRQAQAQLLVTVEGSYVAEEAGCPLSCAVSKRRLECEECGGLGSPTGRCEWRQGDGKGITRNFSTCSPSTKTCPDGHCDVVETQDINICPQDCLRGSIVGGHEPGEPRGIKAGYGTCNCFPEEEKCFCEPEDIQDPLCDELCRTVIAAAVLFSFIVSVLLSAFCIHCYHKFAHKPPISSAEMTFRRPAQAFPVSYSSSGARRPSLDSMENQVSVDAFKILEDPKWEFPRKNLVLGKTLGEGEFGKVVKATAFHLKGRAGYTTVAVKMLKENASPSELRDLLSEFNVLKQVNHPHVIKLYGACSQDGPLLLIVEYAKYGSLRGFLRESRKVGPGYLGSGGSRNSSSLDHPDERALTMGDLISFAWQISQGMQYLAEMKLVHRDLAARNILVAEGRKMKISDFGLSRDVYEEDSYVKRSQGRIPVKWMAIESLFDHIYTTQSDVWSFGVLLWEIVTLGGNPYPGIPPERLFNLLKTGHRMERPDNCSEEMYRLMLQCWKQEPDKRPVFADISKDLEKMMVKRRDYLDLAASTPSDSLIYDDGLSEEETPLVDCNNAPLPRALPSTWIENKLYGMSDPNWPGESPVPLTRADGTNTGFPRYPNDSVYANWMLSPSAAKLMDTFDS
For test [3], the target named is T3, GDNF family receptor alpha-3 (Homo sapiens, UniProt O60609).
T3 sequence (O60609 whole entry): T1 sequence (whole entry)
Briefly: Inhibition of GFRalpha3 (unknown origin).

The target in test [4] is T4, GDNF family receptor alpha-2 (Homo sapiens, UniProt O00451).
T4 sequence (O00451 whole entry): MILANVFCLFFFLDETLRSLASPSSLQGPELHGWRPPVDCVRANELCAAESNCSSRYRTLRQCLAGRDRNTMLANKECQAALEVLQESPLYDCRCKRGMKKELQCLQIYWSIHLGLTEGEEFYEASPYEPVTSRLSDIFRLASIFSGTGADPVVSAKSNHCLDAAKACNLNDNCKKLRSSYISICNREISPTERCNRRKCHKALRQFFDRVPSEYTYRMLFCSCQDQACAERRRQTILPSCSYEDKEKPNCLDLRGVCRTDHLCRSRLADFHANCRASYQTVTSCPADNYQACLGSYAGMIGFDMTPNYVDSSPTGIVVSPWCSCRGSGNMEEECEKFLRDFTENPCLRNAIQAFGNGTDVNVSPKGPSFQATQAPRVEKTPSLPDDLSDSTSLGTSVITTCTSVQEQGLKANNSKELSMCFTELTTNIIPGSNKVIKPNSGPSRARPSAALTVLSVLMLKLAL
As to the kind of experiment: Inhibition of GFRalpha2 (unknown origin).

For test [5], the target named is T2, Proto-oncogene tyrosine-protein kinase receptor Ret. As to the kind of experiment: Inhibition of RET (unknown origin) assessed as maximal efficacy relative to control.
Test [6] addresses T5, GDNF family receptor alpha-1 (Homo sapiens, UniProt P56159).
T5 sequence (P56159 whole entry): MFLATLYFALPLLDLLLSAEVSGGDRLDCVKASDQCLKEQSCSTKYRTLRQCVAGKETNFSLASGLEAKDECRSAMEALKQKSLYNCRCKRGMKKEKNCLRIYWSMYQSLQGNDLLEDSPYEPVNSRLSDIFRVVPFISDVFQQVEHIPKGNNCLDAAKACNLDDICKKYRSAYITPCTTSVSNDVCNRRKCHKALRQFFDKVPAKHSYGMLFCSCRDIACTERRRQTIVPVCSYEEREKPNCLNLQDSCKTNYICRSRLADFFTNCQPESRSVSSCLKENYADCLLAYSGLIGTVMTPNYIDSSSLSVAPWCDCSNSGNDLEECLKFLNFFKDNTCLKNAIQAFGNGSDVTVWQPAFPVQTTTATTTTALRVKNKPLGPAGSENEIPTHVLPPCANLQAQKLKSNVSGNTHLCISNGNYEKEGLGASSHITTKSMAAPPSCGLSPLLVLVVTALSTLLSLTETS
Briefly: Inhibition of GFRalpha1 (unknown origin).

Test [7] has as its target T6, GDNF family receptor alpha-2 (Homo sapiens) (UniProt O00451).
T6 sequence (whole entry): T4 sequence (O00451 whole entry)
Briefly: Inhibition of GFRalpha2 (unknown origin) assessed as maximal efficacy relative to control.

Test [8] concerns the target T7, GDNF family receptor alpha-1 (Homo sapiens) (UniProt P56159).
T7 sequence (whole entry): T5 sequence (P56159 whole entry)
Briefly: Inhibition of GFRalpha1 (unknown origin) assessed as maximal efficacy relative to control.

`CNC(=O)[C@H](NC(=O)Cc1cccc(O[C@H]2CCc3cc(-c4cnc(Nc5cncnc5)nc4)ccc32)c1)C1CCCCC1`: the Emax in test [1], in test [5], in test [7] and in test [8] was 0% each time. For the same compound, the IC50 in test [2], in test [3], in test [4] and in test [6] was above 100 µM each time.

Take `CNC(=O)[C@@H](Cc1c[nH]cn1)NC(=O)Cc1cccc(O[C@H]2CCc3cc(-c4cnc(Nc5ccccc5)nc4)ccc32)c1`: the Emax in test [1] is 100%; in test [5], 0%; in test [7], 0%; in test [8], 97%. Further, the IC50 is above 100 µM in test [2], 13.4 µM in test [3], above 100 µM in test [4] and 29.9 µM in test [6].

In the case of `CNC(=O)[C@H](Cc1c[nH]cn1)NC(=O)Cc1cccc(O[C@H]2CCc3cc(-c4cnc(Nc5ccccc5)nc4)ccc32)c1`, the Emax in test [1] worked out at 70%; in test [5], 65%; in test [7], 46%; in test [8] it was 0%. Moreover, the IC50 in test [2] was 1.1 µM; in test [3], 5.4 µM; in test [4], 3.7 µM; in test [6], above 100 µM.

In the case of `O=C(O)Cc1cccc(O[C@H]2CCc3cc(-c4cnc(Nc5ccccc5)nc4)ccc32)c1`, the Emax in test [1] is 59%; in test [5], 93%; in test [7], 0%; in test [8] it was 0%. The IC50 was 2.3 µM in test [2], 2.8 µM in test [3], above 100 µM in test [4] and above 100 µM in test [6].

Take `NC(=O)[C@H](NC(=O)Cc1cccc(O[C@H]2CCc3cc(-c4ncc(Nc5ccccc5)cn4)ccc32)c1)C1CCCCC1`: the maximum response (Emax) in test [1] was 100%; in test [5], 68%; in test [7], 69%; in test [8] it was 79%. Moreover, the IC50 is 0.8 µM in test [2], 1.1 µM in test [3], 2.5 µM in test [4] and 1 µM in test [6].

Turning to `O[C@H]1CCc2cc(-c3cnc(Nc4ccccc4)nc3)ccc21`, the Emax in test [1] came out at 71%; in test [5], 92%; in test [7], 0%; in test [8], 0%. In addition, the IC50 is 16 µM in test [2], 8.8 µM in test [3], above 100 µM in test [4] and above 100 µM in test [6].

As for `CNC(=O)Cc1cccc(O[C@H]2CCc3cc(-c4cnc(Nc5ccccc5)nc4)ccc32)c1`, the Emax in test [1], in test [5], in test [7] and in test [8] was 0% throughout. The IC50 in test [2], in test [3], in test [4] and in test [6] was above 100 µM each time.

For the compound `CNC(=O)[C@H](NC(=O)Cc1cccc(O[C@H]2CCc3cc(-c4cncc(Oc5ccccc5)c4)ccc32)c1)C1CCCCC1`, the maximum response (Emax) in test [1] is 100%; in test [5] it was 0%; in test [7], 100%; in test [8], 0%. Also, the half-inhibitory concentration (IC50) was above 100 µM in test [2], 26 µM in test [3], 18 µM in test [4] and above 100 µM in test [6].

In the case of `COC(=O)[C@H](Cc1cnc[nH]1)NC(=O)Cc1cccc(O[C@H]2CCc3cc(-c4cncc(Oc5ccccc5)c4)ccc32)c1`, the Emax in test [1] is 100%; in test [5], 0%; in test [7], 0%; in test [8], 0%. The IC50 is above 100 µM in test [2], 7.4 µM in test [3], above 100 µM in test [4] and above 100 µM in test [6].

As for `CNC(=O)[C@H](NC(=O)Cc1cccc(O[C@H]2CCc3cc(-c4cnc(Nc5ccccc5)nc4)ccc32)c1)C1CCCCC1`, the Emax in test [1] was 71%; in test [5], 0%; in test [7], 56%; in test [8], 52%. The IC50 was above 100 µM in test [2], 0.7 µM in test [3], 1 µM in test [4] and 2.1 µM in test [6].

Consider `CNC(=O)[C@H](NC(=O)Cc1cccc(O[C@H]2CCc3ccccc32)c1)C1CCCCC1`, for which the Emax in test [1] stood at 66%; in test [5], 0%; in test [7], 66%; in test [8], 0%. Besides, the IC50 in test [2] was above 100 µM; in test [3], 9.1 µM; in test [4], 9.9 µM; in test [6] it was above 100 µM.

Consider `NC(=O)Cc1cccc(O[C@H]2CCc3cc(-c4cnc(Nc5ccccc5)nc4)ccc32)c1`, for which the Emax in test [1], in test [5], in test [7] and in test [8] was 0% throughout. The IC50 in test [2], in test [3], in test [4] and in test [6] was above 100 µM throughout.

As to `CNC(=O)[C@H](NC(=O)Cc1cccc(O[C@H]2CCc3cc(-c4cncnc4)ccc32)c1)C1CCCCC1`, the Emax in test [1] was found to be 0%; in test [5], 100%; in test [7], 0%; in test [8], 0%. Further, the IC50 was 0.9 µM in test [2], above 100 µM in test [3], above 100 µM in test [4] and above 100 µM in test [6].

As to `CO[C@H]1CCc2cc(-c3cnc(Nc4ccccc4)nc3)ccc21`, the Emax in test [1], in test [5], in test [7] and in test [8] was 0% each time. The 50% inhibitory concentration (IC50) in test [2], in test [3], in test [4] and in test [6] was above 100 µM in each case.

Regarding `CNC(=O)[C@H](NC(=O)Cc1cccc(O[C@@H]2Cc3ccc(-c4cnc(Nc5ccccc5)nc4)cc3C2)c1)C1CCCCC1` (racemic), the maximal response (Emax) in test [1] worked out at 100%; in test [5] it was 0%; in test [7], 100%; in test [8], 86%. Also, the IC50 was above 100 µM in test [2], 0.2 µM in test [3], 0.1 µM in test [4] and 0.25 µM in test [6].

`CNC(=O)[C@H](NC(=O)Cc1cccc(Oc2cnc(Nc3ccccc3)nc2)c1)C1CCCCC1`: the Emax in test [1], in test [5], in test [7] and in test [8] was 0% in each case. The IC50 in test [2], in test [3], in test [4] and in test [6] was above 100 µM throughout.
